These compounds were tested on HEK293T cells carrying the ATF4 luciferase reporter (assay: ATF4-Luc assay, in vitro model of Vanishing Cell White Matter Disease (VWMD)). Conditions: Homo sapiens, HEK-293T, 1 μg/mL tunicamycin, 7 hours, One Glo luminescence.
Type: cell-based
Procedure, shortened: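 Reporter cells were stably generated by retroviral transduction and puromycin selection, then seeded at 30,000 cells/well. Next day, cells received 1 μg/mL tunicamycin with 200 nM test compound for 7 h, and luciferase luminescence was read with a one-step reagent. Values reported as EC50.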
Compound `O=C(COc1ccc(Cl)c(Cl)c1)NC12CC(NC(=O)c3cc(OC(F)F)ccn3)(C1)C2` [Compound 716, N-{3-[2-(3,4-dichlorophenoxy)acetamido]bicyclo[1.1.1]pentan-1-yl}-4-(difluoromethoxy)pyridine-2-carboxamide] has an EC50 of 0.25 to 1 µM.
`O=C(COc1ccc(Cl)c(F)c1)NC12CC(NC(=O)c3ccc(C(F)F)nc3)(C1)C2` [Compound 207, N-{3-[2-(4-chloro-3-fluorophenoxy)acetamido]bicyclo[1.1.1]pentan-1-yl}-6-(difluoromethyl)pyridine-3-carboxamide] gave an EC50 of 0.05 to 0.25 µM.
Compound `CCc1cc(C(=O)NC23CCC(NC(=O)COc4ccc(Cl)c(F)c4)(CC2)C(O)C3)on1` (stereo not drawn) [Compound 515, N-{4-[2-(4-chloro-3-fluorophenoxy)acetamido]-3-hydroxybicyclo[2.2.2]octan-1-yl}-3-ethyl-1,2-oxazole-5-carboxamide] has an EC50 of under 0.05 µM.
Compound `O=C(COc1ccc(Cl)c(F)c1)NC12CCC(NC(=O)c3ccccn3)(CC1)C(O)C2` (stereo not drawn) [Compound 167, N-{4-[2-(4-chloro-3-fluorophenoxy)acetamido]-2-hydroxybicyclo[2.2.2]octan-1-yl}pyridine-2-carboxamide] has an EC50 of 0.05 to 0.25 µM.
Compound `O=C(COc1ccc(Cl)c(F)c1)NC12CCC(NC(=O)c3ccccn3)(C1)C2` [Compound 356, N-{4-[2-(4-chloro-3-fluorophenoxy)acetamido]bicyclo[2.1.1]hexan-1-yl}pyridine-2-carboxamide] has an EC50 of over 2 µM.
Compound `O=C(COc1ccc(Cl)c(F)c1)NC12CC(NC(=O)c3cnc4ccnn4c3)(C1)C2` [Compound 690, N-{3-[2-(4-chloro-3-fluorophenoxy)acetamido]bicyclo[1.1.1]pentan-1-yl}pyrazolo[1,5-a]pyrimidine-6-carboxamide] has an EC50 of 0.25 to 1 µM.
Compound `O=C(COc1ccc(Cl)c(F)c1)NC12CC(NC(=O)c3ccc(Cn4cncn4)cc3)(C1)C2` [Compound 849, N-{3-[2-(4-chloro-3-fluorophenoxy)acetamido]bicyclo[1.1.1]pentan-1-yl}-4-[(1H-1,2,4-triazol-1-yl)methyl]benzamide] has an EC50 of 1 to 2 µM.
With `Cc1ccc(C(=O)NC23CC(NC(=O)COc4ccc(Cl)c(F)c4)(C2)C3)nc1` [Compound 146, N-{3-[2-(4-chloro-3-fluorophenoxy)acetamido]bicyclo[1.1.1]pentan-1-yl}-5-methylpyridine-2-carboxamide] the EC50 was 0.05 to 0.25 µM.
`O=C(COc1ccc(Cl)c(F)c1)NC12CC(NC(=O)c3ccc(Cl)c(F)c3)(C1)C2` [Compound 692, 4-chloro-N-{3-[2-(4-chloro-3-fluorophenoxy)acetamido]bicyclo[1.1.1]pentan-1-yl}-3-fluorobenzamide] was tested, and the EC50 was 0.05 to 0.25 µM.
Compound `O=C(COc1ccc(Cl)c(F)c1)NC12CCC(NC(=O)c3ccc(OCC(F)(F)F)nc3)(CC1)CC2O` (stereo not drawn) [Compound 579, N-{4-[2-(4-chloro-3-fluorophenoxy)acetamido]-3-hydroxybicyclo[2.2.2]octan-1-yl}-6-(2,2,2-trifluoroethoxy)pyridine-3-carboxamide] has an EC50 of 0.05 to 0.25 µM.
Work on `O=C(COc1ccc(Cl)c(F)c1)NC12CC(NC(=O)c3ccc4c(c3)OCO4)(C1)C2` [Compound 239, N-{3-[2-(4-chloro-3-fluorophenoxy)acetamido]bicyclo[1.1.1]pentan-1-yl}-2H-1,3-benzodioxole-5-carboxamide] yielded an EC50 of 0.05 to 0.25 µM.
With `COc1cccc(C(=O)NC23CC(NC(=O)COc4ccc(Cl)c(F)c4)(C2)C3)n1` [Compound 829, N-{3-[2-(4-chloro-3-fluorophenoxy)acetamido]bicyclo[1.1.1]pentan-1-yl}-6-methoxypyridine-2-carboxamide] the EC50 was 0.05 to 0.25 µM.
`Cc1ncc(C(=O)NC23CC(NC(=O)COc4ccc(Cl)c(F)c4)(C2)C3)o1` [Compound 257, N-{3-[2-(4-chloro-3-fluorophenoxy)acetamido]bicyclo[1.1.1]pentan-1-yl}-2-methyl-1,3-oxazole-5-carboxamide] gave an EC50 of 0.05 to 0.25 µM.
`Cc1cc(C(=O)NC23CC(NC(=O)COc4ccc5c(c4)OC(F)(F)O5)(C2)C3)n(C)n1` [Compound 442, N-(3-{2-[(2,2-difluoro-2H-1,3-benzodioxol-5-yl)oxy]acetamido}bicyclo[1.1.1]pentan-1-yl)-1,3-dimethyl-1H-pyrazole-5-carboxamide] showed an EC50 of 0.25 to 1 µM.
Compound `O=C(COc1ccc(Cl)c(F)c1)NC12CC(NC(=O)c3cnccn3)(C1)C2` [Compound 175, N-{3-[2-(4-chloro-3-fluorophenoxy)acetamido]bicyclo[1.1.1]pentan-1-yl}pyrazine-2-carboxamide] has an EC50 of 0.25 to 1 µM.
`O=C(COc1ccc2c(c1)OC(F)(F)O2)NC12CC(NC(=O)c3cc(CO)ccn3)(C1)C2` [Compound 401, N-(3-{2-[(2,2-difluoro-2H-1,3-benzodioxol-5-yl)oxy]acetamido}bicyclo[1.1.1]pentan-1-yl)-4-(hydroxymethyl)pyridine-2-carboxamide] showed an EC50 of 0.25 to 1 µM.
In the case of `COc1cccc(C(=O)NC23CC(NC(=O)COc4ccc(Cl)c(F)c4)(C2)C3)c1F` [Compound 519, N-{3-[2-(4-chloro-3-fluorophenoxy)acetamido]bicyclo[1.1.1]pentan-1-yl}-2-fluoro-3-methoxybenzamide], the EC50 is reported as 0.05 to 0.25 µM.
In the case of `Cc1cnc(C(=O)NC23CCC(NC(=O)COc4ccc(Cl)c(Cl)c4)(C2)C3)cn1` [Compound 142, N-{4-[2-(3,4-dichlorophenoxy)acetamido]bicyclo[2.1.1]hexan-1-yl}-5-methylpyrazine-2-carboxamide], the EC50 is reported as 0.25 to 1 µM.
Compound `O=C(COc1ccc(Cl)c(F)c1)NC12CCC(NC(=O)c3cc(C4CC4)no3)(CC1)CC2O` (stereo not drawn) [Compound 327, N-{4-[2-(4-chloro-3-fluorophenoxy)acetamido]-3-hydroxybicyclo[2.2.2]octan-1-yl}-3-cyclopropyl-1,2-oxazole-5-carboxamide] has an EC50 of 0.05 to 0.25 µM.
Compound `O=C(COc1ccc(Cl)c(F)c1)NC12CC(NC(=O)c3ccc4c(c3)OCCO4)(C1)C2` [Compound 387, N-{3-[2-(4-chloro-3-fluorophenoxy)acetamido]bicyclo[1.1.1]pentan-1-yl}-2,3-dihydro-1,4-benzodioxine-6-carboxamide] has an EC50 of 0.05 to 0.25 µM.
Compound `Cc1cc(C(=O)NC23CC(NC(=O)COc4ccc(Cl)c(Cl)c4)(C2)C3)sn1` [Compound 617, N-{3-[2-(3,4-dichlorophenoxy)acetamido]bicyclo[1.1.1]pentan-1-yl}-3-methyl-1,2-thiazole-5-carboxamide] has an EC50 of under 0.05 µM.
`COCc1nc(C(=O)NC23CCC(NC(=O)COc4ccc(Cl)c(F)c4)(CC2)C(O)C3)cs1` (stereo not drawn) [Compound 523, N-{4-[2-(4-chloro-3-fluorophenoxy)acetamido]-3-hydroxybicyclo[2.2.2]octan-1-yl}-2-(methoxymethyl)-1,3-thiazole-4-carboxamide] was tested, and the EC50 was 0.05 to 0.25 µM.
For `O=C(COc1ccc(Cl)c(F)c1)NC12CC(NC(=O)c3nnc4n3CCCC4)(C1)C2` [Compound 844, N-{3-[2-(4-chloro-3-fluorophenoxy)acetamido]bicyclo[1.1.1]pentan-1-yl}-5,6,7,8-tetrahydro[1,2,4]triazolo[4,3-a]pyridine-3-carboxamide], the EC50 was over 2 µM.
Work on `O=C(COc1ccc(Cl)c(F)c1)NC12CC(NC(=O)c3ccc4cnccc4n3)(C1)C2` [Compound 659, N-{3-[2-(4-chloro-3-fluorophenoxy)acetamido]bicyclo[1.1.1]pentan-1-yl}-1,6-naphthyridine-2-carboxamide] yielded an EC50 of 0.05 to 0.25 µM.
`O=C(COc1ccc(Cl)c(Cl)c1)NC12CC(NC(=O)c3cnc(C(F)F)cn3)(C1)C2` [Compound 201, N-{3-[2-(3,4-dichlorophenoxy)acetamido]bicyclo[1.1.1]pentan-1-yl}-5-(difluoromethyl)pyrazine-2-carboxamide] showed an EC50 of under 0.05 µM.
For `CC(=O)N1CCC(c2ncc(C(=O)NC34CC(NC(=O)COc5ccc(Cl)c(F)c5)(C3)C4)o2)CC1` [Compound 148, 2-(1-acetylpiperidin-4-yl)-N-{3-[2-(4-chloro-3-fluorophenoxy)acetamido]bicyclo[1.1.1]pentan-1-yl}-1,3-oxazole-5-carboxamide], the EC50 was over 2 µM.
`O=C(COc1ccc(Cl)c(F)c1)NC12CC(NC(=O)c3ccc(C(F)(F)F)nc3)(C1)C2` [Compound 203, N-{3-[2-(4-chloro-3-fluorophenoxy)acetamido]bicyclo[1.1.1]pentan-1-yl}-6-(trifluoromethyl)pyridine-3-carboxamide] showed an EC50 of 1 to 2 µM.
For `O=C(COc1ccc(Cl)cc1)NC12CC(Nc3noc(-c4ccc(Cl)cc4)n3)(C1)C2` [Compound 287, 2-(4-chlorophenoxy)-N-(3-{[5-(4-chlorophenyl)-1,2,4-oxadiazol-3-yl]amino}bicyclo[1.1.1]pentan-1-yl)acetamide], the EC50 was 0.05 to 0.25 µM.
`O=C(COc1ccc(Cl)c(F)c1)NC12CC(NC(=O)c3cnoc3C3CC3)(C1)C2` [Compound 900, N-{3-[2-(4-chloro-3-fluorophenoxy)acetamido]bicyclo[1.1.1]pentan-1-yl}-5-cyclopropyl-1,2-oxazole-4-carboxamide] was tested, and the EC50 was over 2 µM.
Work on `O=C(COc1ccc(Cl)c(F)c1)NC12CC(NC(=O)c3cnc(C4=CCC(O)CC4)o3)(C1)C2` (stereo not drawn) [Compound 163, N-{3-[2-(4-chloro-3-fluorophenoxy)acetamido]bicyclo[1.1.1]pentan-1-yl}-2-(4-hydroxycyclohex-1-en-1-yl)-1,3-oxazole-5-carboxamide] yielded an EC50 of 1 to 2 µM.
For `N#Cc1ccc(C(=O)NC23CCC(NC(=O)COc4ccc(Cl)c(F)c4)(CC2)CC3O)nc1` (stereo not drawn) [Compound 170, N-{4-[2-(4-chloro-3-fluorophenoxy)acetamido]-2-hydroxybicyclo[2.2.2]octan-1-yl}-5-cyanopyridine-2-carboxamide], the EC50 was 0.05 to 0.25 µM.
With `CC(C)c1cc(C(=O)NC23CC(NC(=O)COc4ccc(Cl)c(F)c4)(C2)C3)no1` [Compound 255, N-{3-[2-(4-chloro-3-fluorophenoxy)acetamido]bicyclo[1.1.1]pentan-1-yl}-5-(propan-2-yl)-1,2-oxazole-3-carboxamide] the EC50 was 0.25 to 1 µM.
`O=C(COc1ccc(Cl)cc1)NC12CC(Nc3nc(-c4ccc(Cl)cc4)no3)(C1)C2` [Compound 284, 2-(4-chlorophenoxy)-N-(3-{[3-(4-chlorophenyl)-1,2,4-oxadiazol-5-yl]amino}bicyclo[1.1.1]pentan-1-yl)acetamide] was tested, and the EC50 was 0.05 to 0.25 µM.
